Values joined by “and” are separate entries in the source; they are usually repeats but may differ in a detail not shown here. Equal entries are not always repeated. Inconclusive results and toxic doses are left out. Cut-off read from the data, not from the text of the source: active = T/C of 150% or more; inactive = T/C below 125%.
Test system: L1210 leukemia ip in BDF1 mice, survival T/C
Assay: NCI In Vivo Anticancer Drug Screen. Data for tumor model L1210 Leukemia (intraperitoneal) in B6D2F1 (BDF1) mice
Details: endpoint: mean survival time, higher = longer survival
Procedure, shortened: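 Value reflects the ratio of survival in compound-treated mice to survival in vehicle-treated controls, with both groups carrying the same transplanted tumor.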

[1] = dose: 50.0 mg/kg/injection, schedule: Q01DX001 (ip), vehicle: water
[2] = dose: 100.0 mg/kg/injection, schedule: Q01DX009 (ip), vehicle: Klucel (hydroxypropylcellulose) (HPC)
[3] = dose: 100.0 mg/kg/injection, schedule: Q04DX003 (ip), vehicle: Klucel (hydroxypropylcellulose) (HPC)
[4] = dose: 200.0 mg/kg/injection, schedule: Q01DX009 (ip), vehicle: Klucel (hydroxypropylcellulose) (HPC)
[5] = dose: 200.0 mg/kg/injection, schedule: Q04DX003 (ip), vehicle: Klucel (hydroxypropylcellulose) (HPC)
[6] = dose: 400.0 mg/kg/injection, schedule: Q01DX009 (ip), vehicle: Klucel (hydroxypropylcellulose) (HPC)
[7] = dose: 400.0 mg/kg/injection, schedule: Q04DX003 (ip), vehicle: Klucel (hydroxypropylcellulose) (HPC)
[8] = dose: 100.0 mg/kg/injection, schedule: Q01DX001 (ip), vehicle: Klucel (hydroxypropylcellulose) (HPC)
[9] = dose: 100.0 mg/kg/injection, schedule: Q04DX002 (ip), vehicle: Klucel (hydroxypropylcellulose) (HPC)
[10] = dose: 200.0 mg/kg/injection, schedule: Q04DX002 (ip), vehicle: Klucel (hydroxypropylcellulose) (HPC)
[11] = dose: 75.0 mg/kg/injection, schedule: Q04DX003 (ip), vehicle: saline
[12] = dose: 100.0 mg/kg/injection, schedule: Q04DX003 (ip), vehicle: saline
[13] = dose: 150.0 mg/kg/injection, schedule: Q04DX003 (ip), vehicle: saline
[14] = dose: 200.0 mg/kg/injection, schedule: Q04DX003 (ip), vehicle: saline
[15] = dose: 400.0 mg/kg/injection, schedule: Q04DX003 (ip), vehicle: saline
[16] = dose: 100.0 mg/kg/injection, schedule: Q01DX009 (ip), vehicle: saline with Tween-80
[17] = dose: 200.0 mg/kg/injection, schedule: Q01DX009 (ip), vehicle: saline with Tween-80
[18] = dose: 400.0 mg/kg/injection, schedule: Q01DX009 (ip), vehicle: saline with Tween-80

Measured: T/C

NNC(=O)c1ccccn1
inactive: [1] 98 % of control | dose: 75.0 mg/kg/injection, schedule: Q01DX001 (ip), vehicle: water 98 % of control | dose: 100.0 mg/kg/injection, schedule: Q01DX009 (ip), vehicle: water 97 % of control | dose: 150.0 mg/kg/injection, schedule: Q01DX001 (ip), vehicle: water 102 % of control

COc1cccc(C(=O)C(CCC#N)c2ccccc2)c1 (stereo not given)
inactive: [2] 98 % of control | [3] 106 % of control | [4] 98 % of control | [5] 100 % of control | [6] 96 % of control | [7] 95 % of control

Clc1ccc(CSc2ncc(Br)c(Cl)n2)cc1
inactive: dose: 100.0 mg/kg/injection, schedule: Q01DX Z (ip), vehicle: methylcellulose (MC) 90 % of control | dose: 200.0 mg/kg/injection, schedule: Q01DX Z (ip), vehicle: methylcellulose (MC) 99 % of control

CNC(=O)Oc1ccccc1C(=O)NCO
inactive: dose: 50.0 mg/kg/injection, schedule: Q01DX001 (ip), vehicle: Klucel (hydroxypropylcellulose) (HPC) 97 % of control | dose: 50.0 mg/kg/injection, schedule: Q01DX009 (ip), vehicle: Klucel (hydroxypropylcellulose) (HPC) 101 % of control and 107 % of control | dose: 50.0 mg/kg/injection, schedule: Q04DX003 (ip), vehicle: Klucel (hydroxypropylcellulose) (HPC) 97 % of control | [8] 101 % of control | [9] 94 % of control and 101 % of control | [3] 106 % of control | [10] 98 % of control

Nc1csc(N)n1
inactive: [11] 107 % of control | [12] 97 % of control | [13] 105 % of control | [14] 96 % of control | dose: 300.0 mg/kg/injection, schedule: Q04DX003 (ip), vehicle: saline 94 % of control | [15] 103 % of control

CC(C)(C)NC=O
inactive: dose: 50.0 mg/kg/injection, schedule: Q01DX009 (ip), vehicle: saline 98 % of control | dose: 75.0 mg/kg/injection, schedule: Q01DX009 (ip), vehicle: saline 93 % of control | [11] 106 % of control | [13] 96 % of control

CCC1CN2CCc3cc(OC)c(OC)cc3C2CC1=O (stereo not given)
inactive: dose: 50.0 mg/kg/injection, schedule: Q01DX009 (ip), vehicle: saline with Tween-80 102 % of control | [16] 103 % of control and 108 % of control | [17] 124 % of control

O=C(NCCCOc1ccc([N+](=O)[O-])cc1)OCc1ccccc1
inactive: [3] 109 % of control | [5] 107 % of control

C=C1C(=O)OC2C1C1CC1(C)C1CC(OC(C)=O)C(C)C21O (stereo not given)
inactive: [1] 103 % of control | dose: 100.0 mg/kg/injection, schedule: Q01DX001 (ip), vehicle: water 92 % of control | dose: 200.0 mg/kg/injection, schedule: Q01DX001 (ip), vehicle: water 103 % of control

Cc1cc(NC(=O)Nc2cc([N+](=O)[O-])ccc2Cl)no1
inactive: [8] 89 % of control | [2] 96 % of control and 98 % of control | [9] 104 % of control and 91 % of control | [3] 96 % of control | [4] 106 % of control and 90 % of control | [10] 95 % of control and 98 % of control | [5] 97 % of control | [6] 98 % of control | dose: 400.0 mg/kg/injection, schedule: Q04DX002 (ip), vehicle: Klucel (hydroxypropylcellulose) (HPC) 95 % of control and 106 % of control | [7] 97 % of control

N#CCCN1CCCC(=O)NC1=O
inactive: [16] 103 % of control | [12] 105 % of control | [17] 94 % of control | [14] 103 % of control | [18] 97 % of control | [15] 100 % of control

CCC/C=C(/C=O)CC
inactive: dose: 100.0 mg/kg/injection, schedule: Q01DX001 (ip), vehicle: saline with Tween-80 100 % of control | dose: 200.0 mg/kg/injection, schedule: Q01DX001 (ip), vehicle: saline with Tween-80 96 % of control | dose: 400.0 mg/kg/injection, schedule: Q01DX001 (ip), vehicle: saline with Tween-80 96 % of control

Nc1nc(N)c2nc(CNc3ccc(Cl)cc3)cnc2n1
inactive: dose: 20.0 mg/kg/injection, schedule: Q01DX009 (ip), vehicle: Klucel (hydroxypropylcellulose) (HPC) 96 % of control | dose: 40.0 mg/kg/injection, schedule: Q01DX009 (ip), vehicle: Klucel (hydroxypropylcellulose) (HPC) 96 % of control | dose: 80.0 mg/kg/injection, schedule: Q01DX009 (ip), vehicle: Klucel (hydroxypropylcellulose) (HPC) 104 % of control

Cc1[nH]nc(C(F)(F)F)c1N=NN1CCC(C(N)=O)CC1
inactive: dose: 75.0 mg/kg/injection, schedule: Q01DX001 (ip), vehicle: carboxymethylcellulose (CMC) 95 % of control

CC(=S)Nc1ccc2ccccc2c1
inactive: [16] 94 % of control | dose: 100.0 mg/kg/injection, schedule: Q04DX003 (ip), vehicle: saline with Tween-80 101 % of control | [17] 94 % of control | dose: 200.0 mg/kg/injection, schedule: Q04DX003 (ip), vehicle: saline with Tween-80 104 % of control | [18] 109 % of control | dose: 400.0 mg/kg/injection, schedule: Q04DX003 (ip), vehicle: saline with Tween-80 101 % of control

CCOC(=O)CN1CCC(C(=O)OC)CC1
inactive: dose: 100.0 mg/kg/injection, schedule: Q01DX009 (ip), vehicle: saline 96 % of control | [12] 112 % of control | dose: 200.0 mg/kg/injection, schedule: Q01DX009 (ip), vehicle: saline 98 % of control | [14] 124 % of control | dose: 400.0 mg/kg/injection, schedule: Q01DX009 (ip), vehicle: saline 112 % of control | [15] 96 % of control

NC(N)=N/N=C/c1ccc(O)c(C(=O)O)c1
inactive: dose: 15.0 mg/kg/injection, schedule: Q01DX Z (ip), vehicle: methylcellulose (MC) 92 % of control | dose: 30.0 mg/kg/injection, schedule: Q01DX Z (ip), vehicle: methylcellulose (MC) 94 % of control | dose: 60.0 mg/kg/injection, schedule: Q01DX Z (ip), vehicle: methylcellulose (MC) 106 % of control | dose: 60.0 mg/kg/injection, schedule: Q01DX Z (oral), vehicle: methylcellulose (MC) 108 % of control | dose: 120.0 mg/kg/injection, schedule: Q01DX Z (ip), vehicle: methylcellulose (MC) 88 % of control | dose: 120.0 mg/kg/injection, schedule: Q01DX Z (oral), vehicle: methylcellulose (MC) 113 % of control | dose: 250.0 mg/kg/injection, schedule: Q01DX Z (oral), vehicle: methylcellulose (MC) 89 % of control

CC(=O)OCCc1ccc(F)cc1
inactive: dose: 100.0 mg/kg/injection, schedule: Q04DX002 (ip), vehicle: saline 102 % of control | dose: 200.0 mg/kg/injection, schedule: Q04DX002 (ip), vehicle: saline 105 % of control | dose: 400.0 mg/kg/injection, schedule: Q04DX002 (ip), vehicle: saline 102 % of control

CCCCc1c(F)cccc1C(=O)O
inactive: dose: 12.5 mg/kg/injection, schedule: Q04DX003 (ip), vehicle: saline 101 % of control | dose: 25.0 mg/kg/injection, schedule: Q04DX003 (ip), vehicle: saline 108 % of control | dose: 50.0 mg/kg/injection, schedule: Q04DX003 (ip), vehicle: saline 87 % of control
